Test results: patent US5945450A, “Naphthalene derivative” (Teijin Limited, priority 1994, dated 1999)

Tests used:
Assay type in all cases: cell-based
human IgE antibodies = test: In vitro inhibition of the production of human IgE antibodies (lymphocytes + IL-4 + anti CD40Ab + IL-10, ELISA); settings: Lymphocyte, 3 μM, read-out: Inhibition of antibody production (%) IgE
Protocol: (§1) According to the method described in J. Immunol., 146:1836-1842, 1991 and J. Immunol., 147:8-13, 1991, the concentrations of IgE and IgG antibodies were measured by the procedures described below.
(§2) Peripheral venous blood was sampled from the healthy person, and submitted to density-gradient centrifugation to isolate lymphocytes. The lymphocytes thus obtained were washed and suspended in a culture medium (RPMI-1640 (provided by Gibco)+10% heat-inactivated FCS (Whittaker)+100 µg/ml streptomycin+100 U/ml penicillin+2mM L-glutamine). The cell suspensions were cultured for 1 week in the presence/absence of the compounds of this invention at the concentrations as described in Tables 3-1 to 3-2 together with human interleukin 4 (IL-4, Genzyme)([…]), anti CD40 antibodies (anti CD40Ab, Biosource, clone B-B20)([…]) and human interleukin 10 (IL-10, Genzyme)([…]). The culture medium was supplied freshly to the cell suspension, and the mixture was further cultured for another week. The supernatant was sampled and the concentrations of IgE and IgG antibodies therein were measured by sandwich ELISA.
(§3) The ELISA was based, for the assay of IgE antibodies, on the use of rabbit anti-human IgE() antibodies (ICN) as the primary antibody and biotin-linked anti-human IgE monoclonal antibodies (G7-26, PharMingen) as the secondary antibody. For the assay of IgG antibodies, anti-human IgG monoclonal antibodies (G18-145, PharMingen) and biotin-linked donkey anti-human IgG antibodies (H+L)(Jackson) were used for the primary and secondary antibodies, respectively. For the assay of both IgE and IgG antibodies, Avidin-Biotin-Horse Radish Peroxidase (ABC kit, Vector Lab) and TMB (3,3',5,5'-tetramethylbenzidine) microwell peroxidase substrate system (Kirkegaard & Perry Laboratories Inc.) were used as the enzyme and the substrate, respectively. The assays were made by the use of conventionally known ELISA.
(§4) The inhibitory effect (%) of a given compound of this invention on the production of the antibody was calculated with respect to the concentration of the same antibody when the compound was not coexistent (refer to Uejima et al., American Academy of Allergy and Immunology, Proceedings of 1995 Annual Meeting, Program No. 818).

human IgG antibodies = test: In vitro inhibition of human IgG antibody production (lymphocytes + IL-4 + anti CD40Ab + IL-10, ELISA); settings: Lymphocyte, 3 μM
Protocol: as §1, §2, §3, §4

TF (tissue factor) = test: Inhibitory effects on the TF production in LPS-stimulated human peripheral blood monocytes; settings: Monocyte, LPS 1 μg/ml, 16 hours
Protocol: Peripheral venous blood was sampled from the healthy person, and submitted to density-gradient centrifugation so that monocytes might be isolated. The monocytes thus obtained were washed with minimum essential medium (MEM, Gibco) and suspended in a culture medium (RPMI-1640(Gibco)+25 mM HEPES buffer+100 μg/ml streptomycin+100 U/ml penicillin G+2 mM L-glutamine) to give a suspension with a density of 1×10^6 cells/ml. A 0.15 ml of the cell suspension was placed onto each of the wells of a 96-well microplate, to which the compound of this invention as described in Tables 4-1 to 4-2 was added (0.05 ml of the culture medium), and the assembly was placed for 1 hour in a CO2 incubator for cultivation. Then, LPS (lipopolysaccarides, E. coli 0111B4, Difco) 1 μg/ml was added thereto, and the assembly was further cultured for 16 hours. After the supernatant being removed, the residue was washed with physiological saline, 0.1 ml of 16 mM OG (n-octyl-β-D-glucopyranoside) was added thereto, and the assembly was stirred to make TF soluble. A 0.2 ml of physiological saline was added to each residue (final dilution was […]) and this preparation was used for determination of the coagulation stimulating activity (TF-like activity). The test compound had been dissolved in DMSO to give a 0.1 M solution which was diluted with the culture medium prior to use. The final concentration of DMSO was 0.01% or less.
To each well of the microplate, 50 μl of human plasma and 50 μl of the test sample prepared as above for determination of the coagulation stimulating activity, or 50 μl of standard thromboplastin (human thromboplastin, Thromborel S, Behringwerke) were added. The microplate was incubated at 37° C. for 5 minutes, to which was added 25 mM CaCl2 (50 μl/well) containing phosphorous lipids (Platelin, Organon Teknica) at a concentration of […] to initiate coagulation. Coagulation was determined on the basis of absorption at 540 nm, and the measurement lasted 7 to 20 minutes. The data were analyzed with a data analyzing software SOFTMax (Molecular Devices) and the maximum rate time was taken as the coagulation time. The logarithmic values of the coagulation times and standard thromboplastin concentrations are plotted, and a regression parabola was drawn among the dots to give a test curve. From the curve, the inhibitory effect (%) of a given test compound on TF production was calculated. (Refer to J. Imnmunol. Methods, 133:21-29, 1990, and Proc. Natl. Acad. Sci. USA, 89:10370-10374, 1992).

Structure (SMILES): O=C(Cc1ccc(Oc2ccc3cc(OC4CCCCC4)ccc3c2)cc1)Nc1ccccc1C(=O)O [compound 1212]
- inhibition at 3 µM (human IgE antibodies): 89.1%
- inhibition at 3 µM (human IgG antibodies): 74.6%

Structure (SMILES): O=C(Nc1ccccc1C(=O)O)c1ccc(CSc2ccc3ccccc3c2)cc1 [compound 6102]
- inhibition at 3 µM (TF (tissue factor)): 75.8%
- inhibition at 10 µM (TF (tissue factor)): 100%

Structure (SMILES): O=C(Nc1ccccc1C(=O)O)c1cccc(Oc2ccc3ccccc3c2)c1 [compound 1113]
- inhibition at 1 µM (TF (tissue factor)): 25.3%
- inhibition at 3 µM (TF (tissue factor)): 83.6%
- inhibition at 10 µM (TF (tissue factor)): 100%

Structure (SMILES): O=C(Nc1ccccc1-c1nnn[nH]1)c1ccc(Sc2ccc3ccccc3c2)cc1 [Compound No. 3104, 1-(4-(2-naphtylthio)benzamide)-2-(tetrazol-5-yl)benzene]
- inhibition at 3 µM (TF (tissue factor)): 96.9%

Structure (SMILES): O=C(Nc1ccccc1C(=O)O)c1ccc(C(=O)c2ccc3ccccc3c2)cc1 [compound 7102]
- inhibition at 3 µM (human IgE antibodies): 15.4%
- inhibition at 3 µM (human IgG antibodies): 5.4%
- inhibition at 3 µM (TF (tissue factor)): 10.6%
- inhibition at 10 µM (TF (tissue factor)): 81.1%

Structure (SMILES): N#Cc1ccccc1NC(=O)c1ccc(Sc2ccc3ccccc3c2)cc1 [Compound No. 3103, 2-(4-(2-naphtylthio)benzamide)benzonitrile]
- inhibition at 3 µM (human IgE antibodies): 41.9%
- inhibition at 3 µM (human IgG antibodies): 3.5%
- inhibition at 3 µM (TF (tissue factor)): 77.9%

Structure (SMILES): NS(=O)(=O)c1ccccc1NC(=O)c1ccc(Oc2ccc3ccccc3c2)cc1 [Compound No. 1107, 2-(4-(2-naphtyloxy)benzamide)benzenesulfonamide]
- inhibition at 3 µM (human IgE antibodies): 44.9%
- inhibition at 3 µM (human IgG antibodies): -17.2%

Structure (SMILES): O=C(CCc1ccc(Oc2ccc3ccccc3c2)cc1)Nc1ccccc1C(=O)O [compound 1146]
- inhibition at 3 µM (TF (tissue factor)): 23.5%

Structure (SMILES): COC(c1ccc(C(=O)Nc2ccccc2C(=O)O)cc1)c1ccc2ccccc2c1 (stereo not drawn) [compound 8102]
- inhibition at 3 µM (human IgE antibodies): 60%
- inhibition at 3 µM (human IgG antibodies): 9.7%

Structure (SMILES): O=C(C=Cc1ccc(Oc2ccc3ccccc3c2)cc1)Nc1ccccc1C(=O)O [compound 1148]
- inhibition at 3 µM (human IgE antibodies): 25.5%
- inhibition at 3 µM (human IgG antibodies): 10.3%
- inhibition at 3 µM (TF (tissue factor)): 92.9%

Structure (SMILES): CC(C(=O)Nc1ccccc1C(=O)O)c1ccc(Oc2ccc3ccccc3c2)cc1 (stereo not drawn) [compound 1150]
- inhibition at 3 µM (human IgE antibodies): 64.4%
- inhibition at 3 µM (human IgG antibodies): 3.3%

Structure (SMILES): O=C(Cc1ccc(COc2ccc3ccccc3c2)cc1)Nc1ccccc1C(=O)O [compound 5104]
- inhibition at 3 µM (human IgE antibodies): 51.4%
- inhibition at 3 µM (human IgG antibodies): 1.6%

Structure (SMILES): O=C(Nc1ccccc1C(=O)O)c1ccc(COc2ccc3ccccc3c2)cc1 [compound 5102]
- inhibition at 1 µM (TF (tissue factor)): 19.8%
- inhibition at 3 µM (TF (tissue factor)): 74.1%
- inhibition at 10 µM (TF (tissue factor)): 99.9%

Structure (SMILES): O=C(Nc1ccccc1C(=O)O)c1ccc(Oc2ccc3cc(O)ccc3c2)cc1 [Compound No. 1202, 2-(4-(6-hydroxy-2-naphtyloxy)benzamide)benzoic Acid]
- inhibition at 3 µM (human IgE antibodies): 76.6%
- inhibition at 3 µM (human IgG antibodies): -8.7%
- inhibition at 3 µM (TF (tissue factor)): 33.4%

Structure (SMILES): O=C(Cc1ccc(Oc2ccc3cc(OCc4ccccc4)ccc3c2)cc1)Nc1ccccc1C(=O)O [compound 1224]
- inhibition at 3 µM (human IgE antibodies): 78.6%
- inhibition at 3 µM (human IgG antibodies): 83.2%

Structure (SMILES): COc1ccc2cc(Oc3ccc(C(=O)Nc4ccccc4C(=O)O)cc3)ccc2c1 [compound 1204]
- inhibition at 3 µM (human IgE antibodies): 64%
- inhibition at 3 µM (human IgG antibodies): -11.4%
- inhibition at 1 µM (TF (tissue factor)): 75.7%
- inhibition at 3 µM (TF (tissue factor)): 100%
- inhibition at 10 µM (TF (tissue factor)): 100%

Structure (SMILES): O=C(Nc1ccccc1C(=O)O)c1ccc(Oc2ccc3cc(OCc4ccccc4)ccc3c2)cc1 [compound 1206]
- inhibition at 3 µM (human IgE antibodies): 84%
- inhibition at 3 µM (human IgG antibodies): 11.5%

Structure (SMILES): C=CCOc1ccc2cc(Oc3ccc(CC(=O)Nc4ccccc4C(=O)O)cc3)ccc2c1 [compound 1218]
- inhibition at 3 µM (human IgE antibodies): 91.4%
- inhibition at 3 µM (human IgG antibodies): 47.8%

Structure (SMILES): O=C(Nc1ccccc1C(=O)O)c1ccc(Oc2ccc3ccccc3c2)c([N+](=O)[O-])c1 [compound 1116]
- inhibition at 3 µM (human IgE antibodies): 93%
- inhibition at 3 µM (human IgG antibodies): 36.9%
- inhibition at 3 µM (TF (tissue factor)): 96.6%

Structure (SMILES): O=C(Nc1ccccc1C(=O)O)c1ccc(Sc2ccc3ccccc3c2)cc1 [compound 3102]
- inhibition at 3 µM (human IgE antibodies): 19.9%
- inhibition at 3 µM (human IgG antibodies): -2.8%
- inhibition at 3 µM (TF (tissue factor)): 100%

Structure (SMILES): O=C(Nc1ccccc1-c1nnn[nH]1)c1ccc(Oc2ccc3ccccc3c2)cc1 [Compound No. 1109, 1-(4-(2-naphtyloxy)benzamide)-2-(tetrazol-5-yl)benzene]
- inhibition at 1 µM (TF (tissue factor)): 74.9%
- inhibition at 3 µM (TF (tissue factor)): 99.4%
- inhibition at 10 µM (TF (tissue factor)): 99.7%

Structure (SMILES): O=C(Nc1ccccc1O)c1ccc(Oc2ccc3ccccc3c2)cc1 [Compound No. 1106, 2-(4-(2-naphtyloxy)benzamide)phenol]
- inhibition at 3 µM (human IgE antibodies): 42.6%
- inhibition at 3 µM (human IgG antibodies): -25.3%

Structure (SMILES): O=C(Nc1ccccc1C(=O)O)c1ccc(Oc2ccc3ccccc3c2)c(C(=O)O)c1 [compound 1120]
- inhibition at 3 µM (human IgE antibodies): 19.9%
- inhibition at 3 µM (human IgG antibodies): 13.6%

Structure (SMILES): CC(C)(C)Oc1ccc2cc(Oc3ccc(CC(=O)Nc4ccccc4C(=O)O)cc3)ccc2c1 [compound 1210]
- inhibition at 3 µM (human IgE antibodies): 92.8%
- inhibition at 3 µM (human IgG antibodies): 59.9%

Structure (SMILES): O=C(Cc1ccc(Oc2ccc3cc(OCc4ccc5ccccc5c4)ccc3c2)cc1)Nc1ccccc1C(=O)O [compound 1228]
- inhibition at 3 µM (human IgE antibodies): 98.9%
- inhibition at 3 µM (human IgG antibodies): 42.4%

Structure (SMILES): O=C(Nc1ccccc1C(=O)O)c1ccc(Oc2ccc3ccccc3c2)c(C(=O)Nc2ccccc2C(=O)O)c1 [compound 1122]
- inhibition at 3 µM (human IgE antibodies): 59.9%
- inhibition at 3 µM (human IgG antibodies): 9.7%

Structure (SMILES): O=C(Nc1ccccc1C(=O)O)c1ccc(Oc2cccc3ccccc23)cc1 [compound 1111]
- inhibition at 3 µM (human IgE antibodies): 38%
- inhibition at 3 µM (human IgG antibodies): 20%
- inhibition at 1 µM (TF (tissue factor)): -9%
- inhibition at 3 µM (TF (tissue factor)): 96.2%
- inhibition at 10 µM (TF (tissue factor)): 100%

Structure (SMILES): COC(=O)c1ccccc1NC(=O)Cc1ccc(Oc2ccc3ccccc3c2)cc1 [compound 1123]
- inhibition at 3 µM (human IgE antibodies): 21.7%
- inhibition at 3 µM (human IgG antibodies): -0.8%

Structure (SMILES): Nc1cc(C(=O)Nc2ccccc2C(=O)O)ccc1Oc1ccc2ccccc2c1 [Compound No. 1118, 2-(3-amino-4-(2-naphtyloxy)benzamide)benzoic Acid]
- inhibition at 3 µM (human IgE antibodies): 77.2%
- inhibition at 3 µM (human IgG antibodies): -12.9%
- inhibition at 3 µM (TF (tissue factor)): 86.9%

Structure (SMILES): O=C(Nc1ccccc1C(=O)O)c1ccc(Cc2ccc3ccccc3c2)cc1 [compound 4103]
- inhibition at 3 µM (human IgE antibodies): 45.5%
- inhibition at 3 µM (human IgG antibodies): -4.2%
- inhibition at 1 µM (TF (tissue factor)): 16.5%
- inhibition at 3 µM (TF (tissue factor)): 74.4%
- inhibition at 10 µM (TF (tissue factor)): 100%

Structure (SMILES): O=C(Nc1ccccc1)c1ccc(Oc2ccc3ccccc3c2)cc1 [Compound No. 1105, N-phenyl-4-(2-naphtyloxy)benzamide]
- inhibition at 3 µM (human IgE antibodies): 42.4%
- inhibition at 3 µM (human IgG antibodies): -6.4%

Structure (SMILES): COC(=O)c1ccccc1NC(=O)c1ccc(Oc2ccc3ccccc3c2)cc1 [Compound No. 1101, 2-(4-(2-naphthyloxy)benzamide)benzoic Acid Methyl Ester]
- inhibition at 3 µM (human IgE antibodies): 30.3%
- inhibition at 3 µM (human IgG antibodies): -2.8%

Structure (SMILES): O=C(Cc1ccc(Oc2ccc3cc(O)ccc3c2)cc1)Nc1ccccc1C(=O)O [Compound No. 1208, 2-(4-(6-hydroxy-2-naphtyloxy)phenylacetamide)benzoic Acid]
- inhibition at 3 µM (human IgE antibodies): 86.2%
- inhibition at 3 µM (human IgG antibodies): -8.4%
